Converted amounts (≈) assume the structure as drawn.
Legend:
Format in all cases: cell-based, murine
[1] = tested on: TNF-α; assay: TNF-α secretion in LPS-stimulated RAW264.7 cells, ELISA; conditions: 50 ng/mL LPS 48 hours, LPS control 3.81 ± 0.93
Procedure: (§1) The cytokine levels in culture supernatants were measured by sandwich ELISA methods as described by Chen and Lin (Chen, M. L. et al., Int. Arch. Allergy Immunol. 2007, 143, 21-30). More specifically, the anti-cytokine antibodies (PharMingen, San Diego, Calif.) were coated in the 96-well plates (Nunc, Roskilde, Denmark) after overnight incubation at 4° C. and having been blocked with 1% BSA PBS buffer for 30 min. The samples and standards (recombinant mouse cytokines, PharMingen) were added to the 96-well plates for 2 hours incubation. The biotin-conjugated antibodies (biotinylated rat anti-mouse cytokine monoclonal antibodies, PharMingen) were added and incubated. After washing, streptavidin-conjugated peroxidase was added for 1 hour. The substrates, 2,2′-azino-bis-3-ethyl-benzthiazoline-6-sulfonic acid (ABTS, Sigma), were added to each well for 20 min. The plates were read in a microplate autoreader (Microplate autoreader; Bio-Tek Instruments, Winooski, Vt.) at 405 nm.
(§2) IL-6, a proinflammatory cytokine which is a useful marker of infection, is secreted by macrophages in many infectious and inflammatory states, including cardiac surgery, cardiogenic shock, coronary bypass and bacteria sepsis (Kantar, M. et al., Eur. J. Pediatr. 2000, 159, 156-157). Serum concentration of IL-6 has been reported to correlate with disease severity (Pathan, N. et al., Lancet 2004, 363, 203-209). The productions of IL-6 from LPS-stimulated macrophages were measured to evaluate the anti-inflammation effect of the compounds. The cells were pretreated with compounds isolated from A. camphorata for 30 min and then stimulated with 50 ng/mL LPS for 48 hours. The supernatants were collected for TNF-α and IL-6 assay, and the cells were collected for viability analysis by MTT method.

[2] = tested on: RAW264.7 macrophage cells; assay: Cell viability by MTT method in RAW264.7 cells treated with compounds for 48 hours (no LPS); conditions: RAW264.7, no LPS; for Cell viability (%): mean ± SD
Procedure: (§3) To evaluate the immunomodulatory effects of these new compounds, the in vitro production of cytokines in RA W264.7 cells were treated without or with the compounds of the invention at different concentrations for 48 hours. The supernatants were collected for TNF-α assay, and cells were collected for viability analysis by MTT method.

[3] = tested on: LPS-stimulated RAW264.7 macrophage cells; assay: Cell viability by MTT method in LPS-stimulated RAW264.7 cells; conditions: 30 min pretreatment then 50 ng/mL LPS 48 hours
Procedure: as §2

[4] = tested on: IL-6; assay: IL-6 secretion in LPS-stimulated RAW264.7 cells, ELISA; conditions: for IL-6 (pg/mL) secretion: LPS control 238 ± 86; for IC50: Mus musculus, LPS-stimulated RAW264.7, 50 ng/mL LPS 48 hours, highest tested concentration 10 μg/mL, read-out: IC50 of IL-6 production
Procedure: as §1, §2

[5] = tested on: TNF-α; assay: Spontaneous TNF-α secretion by RAW264.7 cells, sandwich ELISA of supernatants; conditions: 48 hours; for TNF-α (pg/mL) secretion: spontaneous, control 88 ± 45
Procedure: as §1, §3

[6] = 0.5 μg/mL, 50 ng/mL LPS 48 hours
[7] = 10 μg/mL, 50 ng/mL LPS 48 hours

IC50 [4] [µg/mL] | SMILES | TNF-α (ng/mL) secretion ([1]; 0.5 μg/mL) [ng/mL] | TNF-α (ng/mL) secretion ([1]; 1 μg/mL) [ng/mL] | TNF-α (ng/mL) secretion ([1]; 5 μg/mL) [ng/mL] | TNF-α (ng/mL) secretion ([1]; 10 μg/mL) [ng/mL] | Cell viability (%) ([2]; 0.5 μg/mL) | Cell viability (%) ([2]; 1 μg/mL) | Cell viability (%) ([2]; 2 μg/mL) | Cell viability (%) ([2]; 5 μg/mL) | Cell viability (%) ([2]; 10 μg/mL) | Cell viability (%) ([3]; 0.5 μg/mL) | Cell viability (%) ([3]; 1 μg/mL) | Cell viability (%) ([3]; 5 μg/mL) | Cell viability (%) ([3]; 10 μg/mL) | IL-6 (pg/mL) secretion [4, 6] [pg/mL] | IL-6 (pg/mL) secretion ([4]; 1 μg/mL, 50 ng/mL LPS 48 hours) [pg/mL] | IL-6 (pg/mL) secretion ([4]; 5 μg/mL, 50 ng/mL LPS 48 hours) [pg/mL] | IL-6 (pg/mL) secretion [4, 7] [pg/mL] | TNF-α (pg/mL) secretion ([5]; 0.5 μg/mL) [pg/mL] | TNF-α (pg/mL) secretion ([5]; 1 μg/mL) [pg/mL] | also measured
25 (≈ 85.5 µM) | COC(=O)/C(CC(C)C)=C(\C(=O)OC)c1ccc(O)cc1 [Compound 6, Dimethyl 2-(4-hydroxyphenyl)-3-isobutylmaleate] | 3.61 ± 0.22 | 3.70 ± 0.50 | 3.80 ± 0.53 | 3.32 ± 0.30 | 100 ± 6 | 99 ± 7 | 102 ± 6 | 95 ± 8 | 96 ± 11 | 108 ± 6 | 107 ± 7 | 106 ± 9 | 102 ± 10 | 235 ± 106 | 215 ± 89 | 209 ± 89 | 179 ± 91 | 100 ± 34 | 114 ± 41 | TNF-α (pg/mL) secretion ([5]; 2 μg/mL): 90 ± 14 pg/mL; TNF-α (pg/mL) secretion ([5]; 5 μg/mL): 110 ± 22 pg/mL; TNF-α (pg/mL) secretion ([5]; 10 μg/mL): 116 ± 4 pg/mL
10 (≈ 31.7 µM) | CC(C)=CCOc1ccc([C@@H]2C(=O)NC(=O)[C@H]2CC(C)C)cc1 (relative stereo) [Compound 1, trans-3-Isobutyl-4-[4-(3-methyl-2-butenyloxy)phenyl]pyrrolidine-2,5-dione] | 3.69 ± 0.39 | 3.92 ± 0.39 | 3.68 ± 0.25 | 3.65 ± 0.17 | 103 ± 2 | 101 ± 3 | 108 ± 6 | 100 ± 10 | 99 ± 7 | 105 ± 3 | 106 ± 4 | 105 ± 3 | 102 ± 4 | 213 ± 88 | 211 ± 99 | 144 ± 64 | 103 ± 61 | 117 ± 31 | 145 ± 44 | effect on cell viability (in words) [2]: without affecting cell viability; IL-6 production in LPS-stimulated cells (in words) ([4]; 50 ng/mL LPS 48 hours): significantly decreased; spontaneous TNF-α secretion by RAW264.7 cells (in words) ([5]; 0.5˜5 μg/mL): significantly increased; TNF-α (pg/mL) secretion ([5]; 2 μg/mL): 183 ± 89 pg/mL; TNF-α (pg/mL) secretion ([5]; 5 μg/mL): 212 ± 60 pg/mL; TNF-α (pg/mL) secretion ([5]; 10 μg/mL): 188 ± 41 pg/mL
54 (≈ 205 µM) | CC(C)C[C@@H]1C(=O)N(O)C(=O)[C@H]1c1ccc(O)cc1 (relative stereo) [Compound 2, trans-1-Hydroxy-3-(4-hydroxyphenyl)-4-isobutylpyrrolidine-2,5-dione] | 3.34 ± 0.58 | 4.04 ± 0.46 | 4.76 ± 0.65 | 3.66 ± 0.67 | 106 ± 7 | 100 ± 5 | 100 ± 5 | 94 ± 6 | 90 ± 4 | 110 ± 5 | 111 ± 6 | 111 ± 8 | 109 ± 2 | 216 ± 102 | 224 ± 110 | 210 ± 96 | 191 ± 68 | 108 ± 28 | 97 ± 13 | TNF-α (pg/mL) secretion ([5]; 2 μg/mL): 105 ± 23 pg/mL; TNF-α (pg/mL) secretion ([5]; 5 μg/mL): 96 ± 8 pg/mL; TNF-α (pg/mL) secretion ([5]; 10 μg/mL): 128 ± 70 pg/mL
96 (≈ 390 µM) | CC(C)CC1=C(c2ccc(O)cc2)C(=O)OC1=O [Compound 5, 3-(4-Hydroxyphenyl)-4-isobutylfuran-2,5-dione] | 3.44 ± 0.31 | 4.06 ± 1.14 | 4.67 ± 1.09 | 3.63 ± 0.58 | 101 ± 7 | 102 ± 5 | 99 ± 6 | 95 ± 9 | 86 ± 8 | 106 ± 4 | 105 ± 2 | 102 ± 2 | 100 ± 3 | 221 ± 102 | 227 ± 94 | 225 ± 68 | 215 ± 56 | 100 ± 26 | 102 ± 30 | TNF-α (pg/mL) secretion ([5]; 2 μg/mL): 90 ± 4 pg/mL; TNF-α (pg/mL) secretion ([5]; 5 μg/mL): 94 ± 19 pg/mL; TNF-α (pg/mL) secretion ([5]; 10 μg/mL): 106 ± 5 pg/mL
17 (≈ 68.5 µM) | CC(C)C[C@H]1C(=O)OC(=O)[C@H]1c1ccc(O)cc1 (relative stereo) [Compound 3, cis-3-(4-Hydroxyphenyl)-4-isobutyldihydrofuran-2,5-dione] | 3.17 ± 0.70 | 3.64 ± 0.84 | 3.88 ± 0.37 | 3.90 ± 0.10 | 91 ± 9 | 87 ± 8 | 80 ± 9 | 72± 11 | 67 ± 15 | 105 ± 6 | 104 ± 6 | 99 ± 3 | 91 ± 4 | 214 ± 82 | 234 ± 109 | 185 ± 76 | 147 ± 53 | 55 ± 2 | 74 ± 7 | TNF-α (pg/mL) secretion ([5]; 2 μg/mL): 68 ± 7 pg/mL; TNF-α (pg/mL) secretion ([5]; 5 μg/mL): 68 ± 26 pg/mL; TNF-α (pg/mL) secretion ([5]; 10 μg/mL): 77 ± 35 pg/mL
18 (≈ 73.4 µM) | CC(C)CC1=C(c2ccc(O)cc2)C(=O)NC1=O [Compound 4, 3-(4-Hydroxyphenyl)-4-isobutyl-1H-pyrrole-2,5-dione] | 2.98 ± 0.24 | 3.22 ± 0.35 | 3.72 ± 0.23 | 3.12 ± 0.61 | 97 ± 13 | 99 ± 4 | 97 ± 5 | 94 ± 7 | 81 ± 8 | 105 ± 6 | 103 ± 5 | 97 ± 5 | 92 ± 8 | 194 ± 81 | 257 ± 40 | 195 ± 83 | 169 ± 63 | 91 ± 38 | 83 ± 22 | TNF-α (pg/mL) secretion ([5]; 2 μg/mL): 105 ± 13 pg/mL; TNF-α (pg/mL) secretion ([5]; 5 μg/mL): 118 ± 23 pg/mL; TNF-α (pg/mL) secretion ([5]; 10 μg/mL): 104 ± 25 pg/mL

— patent US8658690B2, “Use of novel compounds from fruiting body of Antrodia camphorata for treating an inflammatory disorder” (Well Shine Biotechnology Development Co., Ltd., priority 2008, dated 2014)
